From ChEMBL document CHEMBL1132839, “Substituted 3-(2-benzoxazyl)-benzimidazol-2-(1H)-ones: a new class of GABA(A) brain receptor ligands” (Bioorg Med Chem Lett, 2000) come the findings set out here.

Structures are written as SMILES.

Experiment [1] concerns the target GABA-A receptor; anion channel. The experiment can be described thus: Binding affinity against GABA-A benzodiazepine receptor. Type of experiment: protein-complex assay.
Experiment [2] deals with GABA-A receptor; anion channel. Description: Inhibition of GABA-A benzodiazepine receptor. The experiment is classed as protein-complex assay.

`O=C1NC2CCCCCC2N1c1nc2ccc(F)c(F)c2o1` (stereo not given): the inhibitory constant (Ki) (commonly the dissociation constant of the complex between target and ligand, obtained from inhibition or displacement) in experiment [1] was found to be 3 nM.

As to `O=C1NC2CCCCCC2N1c1nc2ccccc2o1` (stereo not given), in experiment [1], the affinity corresponds to a Ki of 8 nM.

In experiment [1], `Oc1nc2ccccc2n1-c1nc2ccc(F)c(F)c2o1` had a Ki of 20 nM. Turning to `Oc1nc2c(n1-c1nc3ccc(F)c(F)c3o1)CCCC2`, the Ki in experiment [1] is 21 nM. Take `Oc1nc2c(n1-c1nc3cccc(F)c3o1)CCCC2`: the affinity in experiment [1] corresponds to a Ki of 52 nM. In the case of `O=C1NC2CCCCCC2N1c1nc2ncccc2o1` (stereo not given), the Ki in experiment [1] was 137 nM. Consider `Oc1nc2cc(F)ccc2n1-c1nc2cccc(F)c2o1`, for which the affinity in experiment [1] corresponds to a Ki of 14 nM.

In turn, `Cn1c(=O)n(-c2nc3ccccc3o2)c2ccccc21` showed a Ki in experiment [1] of over 10000 nM. `Oc1nc2cc(F)ccc2n1-c1nc2ccc(F)cc2o1` yielded a Ki in experiment [1] of 25 nM.

The compound `Oc1nc2c(n1-c1nc3ccc(F)cc3o1)CCCC2` yielded a Ki in experiment [1] of 47 nM. Still for that read-out and setting: to `O=C1NC2CCCCC2N1c1nc2ncccc2o1` (stereo not given) belongs over 1000 nM. In turn, `Oc1nc2cc(F)ccc2n1-c1nc2ccccc2o1` had a Ki in experiment [1] of 32 nM.

`Oc1nc2ccc(F)cc2n1-c1nc2ccccc2o1`: in experiment [1], the affinity, expressed as Ki, was 58 nM. For the compound `O=C1NC2CCCCCC2N1c1nc2cc(F)c(F)cc2o1` (stereo not given), affinity in experiment [1] was put at a Ki of 87 nM.

In experiment [1], `O=C1NC2CCCCCC2N1c1nc2c(F)cc(F)cc2o1` (stereo not given) displayed an inhibition constant (Ki) of 65 nM.

Compound `Oc1nc2ccccc2n1-c1nc2ccccc2s1` displayed a Ki in experiment [1] of over 10000 nM. In turn, `O=C1NC2CCCCCC2N1c1nc2cc(F)cc(F)c2o1` (stereo not given) gave a Ki in experiment [1] of 7 nM.

Turning to `O=C1NC2CCCCCC2N1c1nc2cccc(F)c2o1` (stereo not given), in experiment [1], the affinity corresponds to a Ki of 5 nM. For `Oc1nc2c(n1-c1nc3cc(F)ccc3o1)CCCC2`, in experiment [1], affinity was put at a Ki of 26 nM. In experiment [1], `Oc1nc2ccccc2c2nc(-c3ccccc3)nn12` had a Ki of 4 nM.

Compound `Cc1ccc2oc(N3C(=O)NC4CCCCCC43)nc2c1` (stereo not given) registered a Ki in experiment [1] of 15 nM. Regarding `Oc1nc2cccnc2n1-c1nc2ccccc2o1`, in experiment [1], the Ki came out at 723 nM. Same read-out and setting: to `Oc1nc2c(n1-c1nc3ccccc3o1)CCCC2` belongs 56 nM; to `COc1ccc2oc(N3C(=O)NC4CCCCCC43)nc2c1` (stereo not given), 25 nM. `Oc1nc2ccc(F)cc2n1-c1nc2cccc(F)c2o1` displayed a Ki in experiment [1] of 15 nM.

In experiment [1], `Cc1ccc2nc(-n3c(O)nc4ccccc43)oc2c1` had a Ki of 303 nM. Take `O=C1NC2CCCCCC2N1c1nc2cc(Cl)ccc2o1` (stereo not given): the IC50 (in general, the concentration needed to halve the response being measured) in experiment [2] amounted to 140 nM.

For the compound `Oc1nc2ccccc2n1-c1nc2ncccc2o1`, in experiment [1], the Ki was 44 nM. In turn, `Cc1ccc2nc(N3C(=O)NC4CCCCCC43)oc2c1` (stereo not given) gave a Ki in experiment [1] of 158 nM. On the same count and under the same terms, the value for `O=C1NC2CCCCCC2N1c1nc2ccc(F)cc2o1` (stereo not given) was 5 nM; that for `O=C1NC2CCCCCC2N1c1nc2cc(F)ccc2o1` (stereo not given) was 5 nM. The compound `COc1ccc2oc(-n3c(O)nc4c3CCCC4)nc2c1` showed a Ki in experiment [1] of 81 nM. As for `COc1ccc2nc(-n3c(O)nc4c3CCCC4)oc2c1`, the Ki in experiment [1] was determined as 239 nM. Compound `Oc1nc2ccccc2n1-c1nc2cc(F)ccc2o1` displayed a Ki in experiment [1] of 162 nM.

With `COc1ccc2nc(-n3c(O)nc4ccccc43)oc2c1`, the Ki in experiment [1] turned out to be 610 nM. Turning to `Oc1nc2ccccc2n1-c1nc2ccccc2o1`, the Ki in experiment [1] was 54 nM. The compound `COc1ccc2nc(N3C(=O)NC4CCCCCC43)oc2c1` (stereo not given) gave a Ki in experiment [1] of 254 nM. In the case of `COc1ccc2oc(-n3c(O)nc4ccccc43)nc2c1`, in experiment [1], the Ki came to 91 nM. In experiment [1], `Oc1nc2ccccc2n1-c1nc2ccc(F)cc2o1` gave a Ki of 89 nM. On to `Oc1nc2ccccc2n1-c1nc2cccc(F)c2o1`, for which, in experiment [1], the Ki is 39 nM.
